These results are taken from ChEMBL document CHEMBL1240429, “N'-[(5-chloro-3-methyl-1-phenyl-1H-pyrazol-4-yl)methylene] 2/4-substituted hydrazides: synthesis and anticonvulsant activity” (Eur J Med Chem, 2010).

Activity calls are given as the source filed them. The rule behind the calls is not given here.

The test system of series [1] is Mus musculus. Description: Anticonvulsant activity in ip dosed albino mouse assessed as protection against MES-induced seizures after 30 mins. The format is functional. The note with it: 0.5 h.
Series [2] concerns Mus musculus. Description: Anticonvulsant activity in ip dosed albino mouse assessed as protection against MES-induced seizures after 4 hrs. The class given is functional.
The test system of series [3] is Mus musculus. Description: Anticonvulsant activity in ip dosed albino mouse assessed as protection against scPTZ-induced seizures after 4 hrs. The class given is functional.
In series [4] the test system is Mus musculus. Put plainly: Anticonvulsant activity in ip dosed albino mouse assessed as protection against scPTZ-induced seizures after 30 mins. The format is functional. The settings on record: 0.5 h.
Series [5] is described as follows: Neurotoxicity in ip dosed albino mouse assessed as inability to maintain equilibrium on rotarod after 30 mins by rotarod test. The format is toxicity, organism-based. The note with it: in vivo.

Regarding `O=C1NC(=O)C(c2ccccc2)(c2ccccc2)N1` [PHENYTOIN], the ED50 with Mus musculus [1] and with Mus musculus [2] was 30 mg/kg throughout.
As to `Cc1nn(-c2ccccc2)c(Cl)c1/C=N/NC(=O)c1ccc(F)cc1`, the 50% effective dose (ED50) in the series with Mus musculus [1], in the series on Mus musculus [2], in the series with Mus musculus [3] and with Mus musculus [4] was 100 mg/kg in each case.
On to `Cc1nn(-c2ccccc2)c(Cl)c1/C=N/NC(=O)Cc1ccc(Cl)cc1`, for which the TD50 at 0.5 h in series [5] was 300 mg/kg. Further, the 50% effective dose (ED50) in the series on Mus musculus [1] amounted to 100 mg/kg; in the series with Mus musculus [2] it was 300 mg/kg; with Mus musculus [3], 300 mg/kg; in the series on Mus musculus [4], 100 mg/kg.
As to `CCCC(CCC)C(=O)[O-].[Na+]` [VALPROATE SODIUM], in the series with Mus musculus [3], the ED50 entry was “inactive”. The ED50 in the series on Mus musculus [4] was 300 mg/kg.
Turning to `Cc1ccc(C(=O)N/N=C/c2c(C)nn(-c3ccccc3)c2Cl)cc1`, in series [5], the TD50 at 0.5 h came out at 100 mg/kg.
With `Cc1nn(-c2ccccc2)c(Cl)c1/C=N/NC(=O)c1ccc(Cl)cc1Cl`, the ED50 in the series on Mus musculus [1] and in the series on Mus musculus [4] was 300 mg/kg in each case. For the same molecule, the ED50 entry with Mus musculus [2] and in the series with Mus musculus [3] was “inactive” in each case.
Regarding `Cc1nn(-c2ccccc2)c(Cl)c1/C=N/NC(=O)c1ccc(Cl)cc1`, the TD50 at 0.5 h in series [5] amounted to 300 mg/kg. The ED50 with Mus musculus [1] is 100 mg/kg; in the series with Mus musculus [2], 300 mg/kg; in the series on Mus musculus [3] it was 100 mg/kg; in the series with Mus musculus [4], 100 mg/kg.
Turning to `Cc1nn(-c2ccccc2)c(Cl)c1/C=N/NC(=O)Cc1cccc2ccccc12`, the ED50 in the series with Mus musculus [1] came to 100 mg/kg; in the series with Mus musculus [2] it was 100 mg/kg; in the series with Mus musculus [4], 300 mg/kg. The ED50 result with Mus musculus [3] was “inactive”.
For `Cc1nn(-c2ccccc2)c(Cl)c1/C=N/NC(=O)c1ccc([N+](=O)[O-])cc1`, the results for the ED50 in the series with Mus musculus [1], with Mus musculus [2] and in the series on Mus musculus [4] were 100 mg/kg, 300 mg/kg and 300 mg/kg, respectively. For the same molecule, the ED50 result in the series with Mus musculus [3] is “inactive”.
For `Cc1nn(-c2ccccc2)c(Cl)c1/C=N/NC(=O)c1ccccc1`, the TD50 at 0.5 h in series [5] came to 100 mg/kg.
In the case of `Cc1nn(-c2ccccc2)c(Cl)c1/C=N/NC(=O)COc1ccccc1`, the TD50 at 0.5 h in series [5] amounted to 300 mg/kg.
